{
  "source": "patent US20200147060A1",
  "about": "“COMPOSITIONS AND METHODS OF TREATING CANCER” (UNIVERSITY OF IOWA RESEARCH FOUNDATION, priority 2018, published 2020)",
  "key": {"[1]": {"details": "cited from earlier work; for tolerability in patients: reported clinical trials"}, "A375 melanoma cells": {"tested_on": "A375 melanoma cells", "assay": "Clonogenic survival assay", "type": "cell-based, human", "details": "for development / acquisition of resistance to MAPKi (clonogenic survival): secondary agent combined with MAPKih (Vem 5 μM; Cobi 0.1 μM), PBA 2 mM, HCQ 12 μM", "description": "To determine if the observed MAPKi-induced GSH imbalance plays a causal role in development of resistance, clonogenic survival assays were conducted in which cells were treated with GSH-synthesis inhibitor buthionine sulfoximine (BSO) (0.5 mM) with and without Vem. BSO depletes cellular GSH by inhibiting GSH synthesis via competitive inhibition of gamma-glutamylcysteine synthetase."}, "A375 cells": {"tested_on": "A375 cells", "assay": "Expression of ER-stress/UPR markers (GRP78/BiP, eIF2α)", "type": "cell-based, human", "description": "The GSH/GSSG ratio is known to be a fundamental buffering parameter of the ER, and ER-stress responses have been implicated in the initiation of autophagy and acquisition of resistance to MAPKih. Thus, the impact of MAPKi-induced GSH imbalance on the expression of ER-stress response proteins was assessed. Changes in UPR markers GRP78 (BiP) and eI2Fa (phospho-eI2Fa to inactivated eI2Fa) were determined by western blot in A375 cells treated with Vem alone and in combination with Cobi (FIGS. 2A-C). […] To explore the role of MAPKi-induced GSH imbalance on activation of UPR, similar time-course experiments were performed to monitor the expression of UPR markers with continuous MAPKi with and without GSH depletion (using BSO). Depletion of the GSH pool using BSO in this way rendered the cells incapable of initiating the ER-stress response and no increase in the expression of GRP78 was seen when A375 cells were treated continuously with Vemurafenib in the presence of BSO (FIG. 2D)."}, "[2]": {"tested_on": "MAPKi-resistant 451LuBR melanoma xenografts", "assay": "451LuBR (BRAFi resistant melanoma) xenograft mouse model", "type": "in vivo, mice", "description": "FIGS. 5A-5F. Pharmacologically Inhibiting Autophagy and ER-stress Simultaneously in Combination with MAPKih Improve Overall Survival in Vivo. Simultaneous inhibition of autophagy and ER-stress with MAPKih (Vem and Vem+Cobi) improves outcome in melanoma tumor bearing mice. (A-D) Simultaneous inhibition of ER-stress using PBA (250 mg kg^−1 twice a day) and autophagic flux using (HCQ 10 mg kg^−1 twice a day) with MAPKih (Vem 16 mg kg^−1 twice a day; Cobi 1 mg kg^−1 once a day) improves outcome in mice bearing MAPKi-sensitive A375 melanoma xenografts (N=13). (A) estimated tumor growth curves in response to PBA and HCQ with Vem; (B) estimated tumor growth curves in response to PBA and HCQ with Vem+Cobi; (C) overall survival in response to PBA and HCQ with Vem; (D) overall survival in response to PBA and HCQ with Vem+Cobi. (E, F) Simultaneous inhibition of ER-stress using PBA (250 mg kg^−1 twice a day) and autophagic flux using (HCQ 6.6 mg kg^−1 twice a day) with MAPKih (Vem 10 mg kg^−1 twice a day) improves outcome in mice bearing MAPKi-resistant 451LuBR melanoma xenografts (N=10); (E) estimated tumor growth curves in response to PBA and HCQ with Vem; and (F) overall survival in response to PBA and HCQ with Vem.\nThe potential for simultaneous inhibition of ER-stress and autophagy in overcoming resistance to MAPKih was further explored using a 451LuBR (BRAFi resistant melanoma) cell-line xenograft mouse model treated in the same way. Predictably, administering Vem alone had no effect of tumor growth and overall survival, establishing that these tumors are resistant to BRAFi."}, "[3]": {"tested_on": "A375 BRAFV600E mutant melanoma cells", "assay": "Glutathione (GSH, GSSG) levels in cells under prolonged MAPKi", "type": "cell-based, human", "description": "(§1) Initial response rates to MAPKih (BRAFih and BRAFih+MEKih) are often significant (and sometimes remarkable), but melanoma almost invariably (within months) develops resistance to these treatments. It has been further documented that continuous MAPKi brings about changes in cellular metabolism accompanied with a shift in metabolism from glycolysis to oxidative phosphorylation in vitro. Changes were examined in metabolism and oxidative state of A375 BRAFV600E mutant melanoma cells from initiation of BRAFih (Vem, 5 μM) through the acquisition of resistance (approximately 30 days). […] Changes in cellular metabolism coincided with a nearly identical pattern in the cellular redox state of the cell when quantified by the method of DHE oxidation by fluorescence intensity. […] Considering the critical relationship between cellular responses to oxidative stress and the glutathione cellular redox buffer, the changes in glutathione (GSH) levels and the ratio of GSH to the oxidized form (GSH:GSSG) with prolonged MAPKi in the A375 cells treated with Vem (5 μM) were evaluated over the same time period (FIG. 1D)."}, "A375-CG-LC3B cells": {"tested_on": "A375-CG-LC3B cells", "assay": "Autophagic flux (mCherry:EGFP ratio) by flow cytometry", "type": "cell-based, human", "description": "(§2) UPR responses signal the activation of cytoprotective pathways such as autophagy. The role of GSH in mediating the acquisition of resistance was further explored by examining autophagy and autophagic flux responses to MAPKi in A375 metastatic melanoma cells.\nBriefly, A375-CG-LC3B cells were obtained using a retroviral vector containing a coding sequence for a mCherry-EGFP-LC3B tandem protein (pBABE-puro mCherry-EGFP-LC3B, #22418, Addgene). The retrovirus was packaged in GP2-293 cells by co-transfection of 1 μg of viral DNA constructs and 1 μg of envelope plasmid (pVSV-G) in 20 μL PolyFect transfection reagent (Qiagen) for 48 hours at 37° C., 5% CO2. Virus-rich media was collected, aliquoted, and stored at −80° C. Cells were infected using the virus-rich media in DMEM (high glucose) for 12 h followed by incubation in complete media (high-glucose DMEM with 10% FBS) for 24 h. […] Autophagy was quantified as autophagic flux (Af) using A375-CG-LC3B cells.\nWhere Fmcherry is mcherry fluorescence measured using the 532 nm laser and FGFP is GFP fluorescence measured using the 488 nm laser on LSR II. […] Samples were analyzed on an LSR II flow cytometer (BD). Af was calculated for live, non-apoptotic (Hoechst negative, Annexin V negative) population using the derived parameter function in Flow Jo software (V10.4). […]"}, "[4]": {"tested_on": "MAPKi-sensitive A375 melanoma xenografts", "assay": "A375 xenograft bearing mice treated with MAPKih with or without PBA and HCQ", "type": "in vivo", "details": "Vem 16 mg/kg twice a day, Cobi 1 mg/kg once a day, PBA 250 mg/kg twice a day i.p., HCQ 10 mg/kg twice a day"}, "[5]": {"tested_on": "A375 BRAFV600E mutant melanoma cells", "assay": "Oxygen consumption / extracellular acidification (Seahorse metabolic profiling)", "type": "cell-based, human", "details": "Vem 5 μM continuous; plateaued within approximately 2 weeks"}, "[6]": {"tested_on": "A375 metastatic melanoma cells", "assay": "Autophagosome area fraction (TEM) and LC3B-II expression", "type": "cell-based, human", "description": "as §2"}, "metastatic melanoma": {"tested_on": "metastatic melanoma", "details": "cited from earlier work; for progression-free survival (time tumor progression is slowed): melanoma patients, average"}, "[7]": {"tested_on": "A375 BRAFV600E mutant melanoma cells", "assay": "DHE oxidation (cellular redox state) by fluorescence intensity", "type": "cell-based, human", "details": "Vem 5 μM; subsided with acquisition of resistance", "description": "as §1"}, "451 Lu melanoma cells": {"tested_on": "451 Lu melanoma cells", "assay": "Clonogenic survival assay", "type": "cell-based", "details": "ME added to the combination of vem and BSO", "description": "FIGS. 7A-7L. Reduced Thiols Play a Vital Role in Development of Resistance to MAPKi. (A-E) Reduced thiols play a vital role in development of resistance to MAPKi in vitro. Changes in (A) cellular concentration of reduced glutathione (GSH, nmoles/mg protein) (B) cellular concentration of oxidized glutathione (GSSG, nmoles/mg protein) of A375 melanoma cells when treated with buthionine sulfoximine (BSO, 0.5 mM) and 2-mercaptoethanol (ME, 150 μM) in presence of vemurafenib (Vem, 5 μM) (N=3). Difference in clonogenic survival of A375 (N=2, n=3) and 451 Lu (N=1, n=3) melanoma cells when treated with vem alone compared to (C) vem in combination with ME and (D) vem in combination with BSO. (E) Addition of ME to the combination of vem and BSO rescues clonogenic survival in A375 and 451 Lu melanoma cells. […] Spider plots show individual tumor growth rates in A375 tumor bearing mice (N=8) when (F) untreated; (G) treated with BSO (15 mM in drinking water); (H) treated with AIN-76A rodent diet mixed with vemurafenib (PLX4720); (I) combination of AIN-76A rodent diet mixed with vemurafenib (PLX4720) with BSO. (J) Levels of total cellular GSH in tumor tissue obtained from untreated mice and mice treated with BSO. (K) Progression Free Survival (PFS) and (L) Overall survival (OS). ±SEM; *p=0.01 to 0.05, **p=0.001 to 0.01 ****P<0.0001."}, "[8]": {"details": "Vem 10 mg/kg, PBA 250 mg/kg, HCQ 6.6 mg/kg, each twice a day, compared to control"}, "[9]": {"details": "A375 cells, prolonged MAPKi (Vem 5 μM)"}},
  "note": "“Also recorded” adds a separate entry of the source. Read-outs that look alike come from different tables or passages of the source.",
  "data": [
    {"compound": "CCCCS(=N)(=O)CCC(N)C(=O)O", "note": "[BSO, L-buthionine-[S,R]-sulfoximine]", "values": [
      {"measurement": "tolerability in patients", "setting": "[1]", "result": "well-tolerated"},
      {"measurement": "clonogenic survival", "setting": "A375 melanoma cells; BSO 0.5 mM alone, without MAPKih", "result": "did not affect"},
      {"measurement": "development / acquisition of resistance to MAPKi (clonogenic survival)", "setting": "A375 melanoma cells; BSO 0.5 mM", "result": "completely inhibits acquisition of resistance; also recorded: prevents acquisition of resistance"},
      {"measurement": "expression of GRP78 (BiP)", "setting": "A375 cells; continuous Vem in the presence of BSO 0.5 mM", "result": "diminished"}
    ]},
    {"compound": "O=C(O)CCCc1ccccc1", "note": "[PBA, phenylbutyric acid]", "values": [
      {"measurement": "tolerated dose", "setting": "[1]; patients suffering from urea cycle disorders", "result": "up to 27 g per day"},
      {"measurement": "tolerability in patients", "setting": "[1]", "result": "safely administered"}
    ]},
    {"compound": "CCCS(=O)(=O)Nc1ccc(F)c(C(=O)c2c[nH]c3ncc(-c4ccc(Cl)cc4)cc23)c1F", "note": "[Vem, Vemurafenib]", "values": [
      {"measurement": "median / overall survival", "setting": "[2]; [8]", "result": "no effect"},
      {"measurement": "tumor growth rate", "setting": "[2]; [8]", "result": "no effect"},
      {"measurement": "total GSH concentration after adaptation", "setting": "[3]; >170 d Vem treatment, versus untreated control cells", "result": "re-equilibrated to levels comparable to untreated control cells"},
      {"measurement": "depletion of glutathione (GSH)", "setting": "[3]; [9]", "result": 68, "unit": "%"},
      {"measurement": "increase in oxidized glutathione (GSSG)", "setting": "[3]; [9]", "result": 30, "unit": "fold"},
      {"measurement": "autophagic flux", "setting": "A375-CG-LC3B cells; continuous MAPKi (Vem 5 μM; Cobi 0.1 μM) versus untreated cells", "result": "increased"},
      {"measurement": "rate of tumor growth", "setting": "[4]", "result": "similar"},
      {"measurement": "expression of ER-stress markers", "setting": "A375 cells; continuous MAPKi, later decrease to pre-treatment levels", "result": "gradual increase"},
      {"measurement": "ratio of oxygen consumption linked to basal mitochondrial respiration (OCR) and extracellular acidification rate (ECAR)", "setting": "[5]", "result": "initial increase"},
      {"measurement": "area fraction of cells covered by autophagosomes (TEM)", "setting": "[6]; Vem 5 μM", "result": "significant increase"},
      {"measurement": "expression of autophagic flux marker LC3B-II", "setting": "[6]; continuous MAPKi by Vem", "result": "significant increases"},
      {"measurement": "progression-free survival (time tumor progression is slowed)", "setting": "metastatic melanoma; listed as Vemurafenib", "result": "about 7.2 months"},
      {"measurement": "progression-free survival (time tumor progression is slowed)", "setting": "metastatic melanoma; listed as vemurafenib", "result": 7.2, "unit": "months"},
      {"measurement": "oxidation of DHE", "setting": "[7]", "result": "initial increase"}
    ]},
    {"compound": "CCN(CCO)CCCC(C)Nc1ccnc2cc(Cl)ccc12", "note": "(stereo not shown) [HCQ, Hydroxychloroquine]", "values": [
      {"measurement": "median / overall survival", "setting": "[2]; [8]", "result": "significantly enhanced"},
      {"measurement": "complete response (complete remissions)", "setting": "[2]; share of mice", "result": 20, "unit": "%"},
      {"measurement": "tolerability in patients", "setting": "[1]", "result": "well tolerated"},
      {"measurement": "autophagic flux induced by MAPKi", "setting": "A375-CG-LC3B cells; secondary agent (BSO 0.5 mM, PBA 2 mM, HCQ 12 μM) added to MAPKih, versus MAPKih alone", "result": "decreased"},
      {"measurement": "development / acquisition of resistance to MAPKi (clonogenic survival)", "setting": "A375 melanoma cells; BSO 0.5 mM", "result": "prevented resistance"}
    ]},
    {"compound": "OCCS", "note": "[ME, 2-mercaptoethanol]", "values": [
      {"measurement": "clonogenic survival on addition of ME to vem and BSO", "setting": "A375 melanoma cells; ME 150 μM, BSO 0.5 mM, Vem 5 μM", "result": "reversed; also recorded: rescues"},
      {"measurement": "clonogenic survival on addition of ME to vem and BSO", "setting": "451 Lu melanoma cells", "result": "rescues"}
    ]},
    {"compound": "CC(C)(C)c1nc(-c2cccc(NS(=O)(=O)c3c(F)cccc3F)c2F)c(-c2ccnc(N)n2)s1", "note": "[dabrafenib, Dabrafenib]", "values": [
      {"measurement": "time until resistance occurs", "setting": "metastatic melanoma; clinical trial data", "result": "6 to 7", "unit": "months"}
    ]}
  ]
}
